Data on four compounds can be found in ChEMBL document CHEMBL1201862, “PubChem BioAssay data set” (2004).

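In this assay, cells in 96-well plates receive the compound at five concentrations for 48 hours. Endpoints are linearly interpolated between the surrounding concentrations. The concentration for 50% growth inhibition is given as GI50.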 The source made the active and inactive calls. No stated cut-off is given here; in the data, active = GI50 up to about 1.1 µM and inactive = higher.

Test systems include SN12C; SNB-19; MOLT-4; SK-OV-3; HCT-15; HCT-116; HT-29; U-251; NCI-H226; A498; CCRF-CEM; UO-31; K562; SNB-75; NCI-H23; SK-MEL-28; SF-539; UACC-62; M14.
Common to all, as to assay: inhibition of tumour cell growth, NCI panel, 48 h

Take `CCOC(=O)C1(CO)CSCCSC1`: the GI50 in the experiment on SN12C was > 100 µM (inactive); in the experiment on SNB-19, > 100 µM (inactive); in the experiment on MOLT-4, > 100 µM (inactive); in the experiment with SK-OV-3 it was > 100 µM (inactive); in the experiment on HCT-15 it was > 100 µM; in the experiment with HCT-116, > 100 µM (inactive). Further, the GI50 with HT-29, in the experiment with U-251, in the experiment with NCI-H226, in the experiment with A498, with CCRF-CEM and with UO-31 was > 100 µM (inactive) each time. The GI50 in the experiment on K562, in the experiment with SNB-75, with NCI-H23 and in the experiment with SK-MEL-28 was > 100 µM (inactive) each time.
Turning to `CCn1c(=O)c2c3ccc(O)cc3[nH]c2c2ccc(O)cc21`, the GI50 was 81.5 µM (inactive) in the experiment with SN12C; > 100 µM (inactive) in the experiment with SNB-19; 39.1 µM (inactive) with MOLT-4; > 100 µM (inactive) with SK-OV-3; > 100 µM in the experiment on HCT-15; 45.4 µM (inactive) in the experiment with HCT-116. The GI50 in the experiment on HT-29 is > 100 µM (inactive); with SF-539, > 100 µM (inactive); in the experiment on U-251, 56.8 µM (inactive); with NCI-H226, > 100 µM (inactive); with A498, > 100 µM (inactive); in the experiment on CCRF-CEM, 55.8 µM (inactive). Also, the GI50 is > 100 µM (inactive) with UO-31; 83.6 µM (inactive) in the experiment with K562; 66.2 µM (inactive) with SNB-75; 57 µM (inactive) in the experiment with UACC-62; > 100 µM (inactive) in the experiment with M14; > 100 µM (inactive) in the experiment on NCI-H23. For the same compound, the GI50 with SK-MEL-28 is > 100 µM (inactive).
`O=C(O)c1cc([N+](=O)[O-])cc2c(=O)c3cnccc3[nH]c12`: the GI50 in the experiment with SN12C was > 100 µM (inactive); with SNB-19 it was > 100 µM (inactive); in the experiment with MOLT-4, 54.8 µM (inactive); with SK-OV-3, > 100 µM (inactive); in the experiment on HCT-15, > 100 µM; in the experiment with HCT-116 it was > 100 µM (inactive). Further, the GI50 with HT-29, with U-251, in the experiment on NCI-H226, with A498, in the experiment with CCRF-CEM and in the experiment on UO-31 was > 100 µM (inactive) in each case. Moreover, the GI50 with K562 was > 100 µM (inactive); in the experiment with SNB-75, > 100 µM (inactive); in the experiment with UACC-62, 65.2 µM (inactive); in the experiment on M14 it was > 100 µM (inactive); in the experiment with NCI-H23, > 100 µM (inactive); in the experiment on SK-MEL-28, > 100 µM (inactive).
For the compound `C=CCOC1OC(CS(=O)(=O)O)C(OC(C)=O)C(OC(C)=O)C1OC(C)=O` (stereo unspecified), the GI50 with SN12C was > 100 µM (inactive); in the experiment on SNB-19 it was > 100 µM (inactive); in the experiment with MOLT-4 it was > 100 µM (inactive); with SK-OV-3, > 100 µM (inactive); in the experiment with HCT-15 it was > 100 µM; in the experiment with HCT-116, > 100 µM (inactive). Moreover, the GI50 with HT-29, in the experiment on U-251, in the experiment on NCI-H226, in the experiment with A498, in the experiment with CCRF-CEM and with UO-31 was > 100 µM (inactive) in each case. Moreover, the GI50 is 38.1 µM (inactive) in the experiment on K562; > 100 µM (inactive) in the experiment on SNB-75; > 100 µM (inactive) in the experiment with UACC-62; > 100 µM (inactive) in the experiment with M14; > 100 µM (inactive) in the experiment with NCI-H23; > 100 µM (inactive) with SK-MEL-28.
